Among the test systems are OVCAR-5 ovarian; HS 578T breast; SK-MEL-2 melanoma; SW-620 colon; MALME-3M melanoma; M14 melanoma; A549 NSCLC; MDA-MB-435.
Common to all, as to assay: NCI tumour cell line growth inhibition, 48 h

The structures appear in SMILES notation. “And” between values parts separate entries of the source, which are not always exact repeats. Identical values can stand only once.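 Grown in 96-well plates, cells were treated for 48 hours with each compound at five concentrations. Insufficient inhibition: endpoint recorded as highest concentration tested. GI50: concentration for 50% inhibition of growth. TGI denotes the concentration required for complete inhibition of growth.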 A value given as a limit tells only on which side of the number the result lay.

As for `O=Cc1ccc(C(F)(F)F)cc1.[C-]#[O+].[C-]#[O+].[C-]#[O+].[Cr]`, the GI50 with OVCAR-5 ovarian was 53.9 µM; in the assay on HS 578T breast it was 24.6 µM; in the assay on SK-MEL-2 melanoma, 23.7 µM; in the assay on SW-620 colon, 30.9 µM; in the assay on MALME-3M melanoma it was 26.8 µM; in the assay on M14 melanoma it was 12.9 µM. The GI50 with A549 NSCLC is 23 µM; in the assay on MDA-MB-435 it was 14.3 µM. The TGI in the assay on OVCAR-5 ovarian is above 100 µM; with HS 578T breast, 75.9 µM; in the assay with SK-MEL-2 melanoma, above 100 µM; with SW-620 colon, above 100 µM; in the assay with MALME-3M melanoma it was 91 µM; in the assay with M14 melanoma, 37 µM. For the same molecule, the TGI with A549 NSCLC is above 100 µM; with MDA-MB-435, 45.7 µM.
For `NC(=O)NC(=O)CI`, the GI50 was 11.3 µM in the assay on OVCAR-5 ovarian; 15.8 µM in the assay with HS 578T breast; 5.78 µM in the assay on SK-MEL-2 melanoma; 1.68 µM in the assay with SW-620 colon; 1.42 µM in the assay on MALME-3M melanoma; 5.12 µM with M14 melanoma. Further, the GI50 in the assay with A549 NSCLC was 18.8 µM; in the assay on MDA-MB-435, 4.02 µM. The TGI in the assay with OVCAR-5 ovarian is 26.1 µM; in the assay with HS 578T breast it was 47.8 µM; in the assay on SK-MEL-2 melanoma, 18.7 µM; with SW-620 colon, 3.57 µM; in the assay with MALME-3M melanoma, 3.32 µM; with M14 melanoma, 17.4 µM. The TGI in the assay on A549 NSCLC amounted to 37.4 µM; with MDA-MB-435, 15.9 µM.
`CNCCNc1nc2ccccc2c2c(=O)c3cccc(OC)c3sc12`: the GI50 was 1.64 µM in the assay on OVCAR-5 ovarian; 1.57 µM in the assay with HS 578T breast; 1.78 µM in the assay with SK-MEL-2 melanoma; 0.575 µM with SW-620 colon; 1.83 µM in the assay with MALME-3M melanoma; 1.59 µM with M14 melanoma. Moreover, the GI50 was 1.2 µM in the assay on A549 NSCLC and 1.67 µM with MDA-MB-435. Also, the TGI with OVCAR-5 ovarian is 3.27 µM; with HS 578T breast, 3.97 µM; in the assay with SK-MEL-2 melanoma, 3.62 µM; with SW-620 colon it was 2.11 µM; with MALME-3M melanoma, 3.59 µM; in the assay on M14 melanoma, 3.01 µM. In addition, the TGI in the assay with A549 NSCLC amounted to 2.78 µM; in the assay with MDA-MB-435, 3.09 µM.
On to `Cn1c(=O)c(F)c(Nc2ccc(I)cc2F)c2c(=O)n(C[C@@H](O)CO)cnc21`, for which the GI50 is < 0.01 µM and 0.0058 µM with OVCAR-5 ovarian; 5.17 µM and 1.21 µM in the assay on HS 578T breast; < 0.01 µM and 0.00295 µM in the assay with SK-MEL-2 melanoma; < 0.01 µM and 0.00521 µM in the assay with SW-620 colon; < 0.01 µM and 0.00177 µM in the assay with MALME-3M melanoma; < 0.01 µM and 0.00175 µM with M14 melanoma. For the same molecule, the GI50 was 0.234 µM and 0.11 µM with A549 NSCLC; < 0.01 µM and 0.00642 µM in the assay on MDA-MB-435. Also, the TGI in the assay with OVCAR-5 ovarian is 35.3 µM and > 1.97 µM; in the assay on HS 578T breast, 54.6 µM and > 3.97 µM; with SK-MEL-2 melanoma, < 0.0252 µM and 0.0277 µM; with SW-620 colon it was above 64.1 µM; with MALME-3M melanoma, below 0.01 µM; in the assay on M14 melanoma, 0.0211 µM. Besides, the TGI is 58.7 µM and > 4.08 µM in the assay with A549 NSCLC; 41.1 µM in the assay on MDA-MB-435.
For `CC1=C(C)C(=O)C(C(C)C2=C(C)C(=O)C(C)=C(C)C2=O)=C(C)C1=O`, the GI50 in the assay with OVCAR-5 ovarian was 47 µM; in the assay with HS 578T breast it was 29.2 µM; in the assay with SK-MEL-2 melanoma, 33.8 µM; with SW-620 colon, 15.7 µM; with MALME-3M melanoma it was 44.1 µM; in the assay on M14 melanoma, 53.7 µM. In addition, the GI50 was 51 µM in the assay on A549 NSCLC and 39.4 µM in the assay on MDA-MB-435. Also, the TGI in the assay with OVCAR-5 ovarian was above 100 µM; in the assay on HS 578T breast, above 100 µM; with SK-MEL-2 melanoma, above 100 µM; with SW-620 colon it was 29.8 µM; in the assay with MALME-3M melanoma it was above 100 µM; with M14 melanoma, above 100 µM. The TGI with A549 NSCLC and with MDA-MB-435 was above 100 µM throughout.
With `C=C1C(=O)O[C@H]2[C@H]1CC/C(Cn1cc(CCC)nn1)=C\CC[C@@]1(C)O[C@@H]21`, the GI50 in the assay with OVCAR-5 ovarian is 14.1 µM; in the assay with HS 578T breast, 23.4 µM; in the assay on SK-MEL-2 melanoma it was 16.3 µM; in the assay on SW-620 colon, 4.23 µM; in the assay with MALME-3M melanoma, 4.7 µM; in the assay with M14 melanoma, 3.99 µM. Besides, the GI50 in the assay on A549 NSCLC is 22.3 µM; with MDA-MB-435 it was 10.4 µM. Besides, the TGI in the assay with OVCAR-5 ovarian came to 29.5 µM; in the assay on HS 578T breast it was 69.6 µM; in the assay with SK-MEL-2 melanoma, 34.5 µM; with SW-620 colon, 14.4 µM; in the assay with MALME-3M melanoma, 18.4 µM; in the assay on M14 melanoma, 17.9 µM. Also, the TGI with A549 NSCLC was 44.3 µM; with MDA-MB-435 it was 24.9 µM.
On to `CC1SC(c2cccs2)N(NC(=O)C(O)c2ccccc2)C1=O` (centres undefined), for which the GI50 in the assay on OVCAR-5 ovarian, in the assay with HS 578T breast, in the assay with SK-MEL-2 melanoma, in the assay on SW-620 colon, with MALME-3M melanoma and in the assay on M14 melanoma was above 100 µM each time. The GI50 in the assay on A549 NSCLC and with MDA-MB-435 was above 100 µM in each case. Further, the TGI in the assay with OVCAR-5 ovarian, in the assay with HS 578T breast, in the assay on SK-MEL-2 melanoma, in the assay with SW-620 colon, in the assay on MALME-3M melanoma and with M14 melanoma was above 100 µM throughout. For the same molecule, the TGI with A549 NSCLC and in the assay with MDA-MB-435 was above 100 µM each time.
For the molecule `Nc1nc(Cl)nc2c1ncn2C1O[C@H](CO)[C@@H](O)[C@@H]1F` (some centres undefined), the GI50 in the assay with OVCAR-5 ovarian was 3 µM; in the assay with HS 578T breast, above 94.2 µM; in the assay on SK-MEL-2 melanoma it was above 100 µM; with SW-620 colon it was 0.888 µM; in the assay on MALME-3M melanoma, 43.4 µM; in the assay on M14 melanoma, 0.0876 µM. In addition, the GI50 in the assay with A549 NSCLC was 0.379 µM; in the assay with MDA-MB-435, 0.485 µM. Besides, the TGI in the assay with OVCAR-5 ovarian was above 100 µM; in the assay with HS 578T breast, above 100 µM; in the assay on SK-MEL-2 melanoma, above 100 µM; in the assay with SW-620 colon, above 100 µM; in the assay with MALME-3M melanoma, above 100 µM; with M14 melanoma, 0.292 µM. Besides, the TGI in the assay with A549 NSCLC and in the assay on MDA-MB-435 was above 100 µM throughout.
Regarding `CCCCCCCCSC1=CC(=O)C(OC)=C(OC)C1=O`, the GI50 in the assay with OVCAR-5 ovarian is 4.25 µM; in the assay on HS 578T breast it was 2.64 µM; with SK-MEL-2 melanoma, 4.3 µM; in the assay on SW-620 colon, 1.71 µM; with MALME-3M melanoma, 1.96 µM; in the assay on M14 melanoma it was 2.06 µM. The results for the GI50 in the assay with A549 NSCLC and with MDA-MB-435 were 5.49 µM and 1.88 µM, respectively. Moreover, the TGI in the assay with OVCAR-5 ovarian worked out at 16.7 µM; in the assay with HS 578T breast, 9.85 µM; in the assay with SK-MEL-2 melanoma, 13.7 µM; in the assay with SW-620 colon, 3.37 µM; with MALME-3M melanoma, 4.44 µM; with M14 melanoma it was 9.86 µM. Also, the TGI worked out at 18.5 µM in the assay on A549 NSCLC and 7.57 µM in the assay with MDA-MB-435.

For the origin of these results see PubChem BioAssay (NCI).
